Experimental data reported in patent US20120252773A1, “Method and composition for inhibiting cell proliferation and angiogenesis” (priority 2005, published 2012).

Experiments:
[1] = test system: granulation tissue in fibrin Z-chambers; test: In vivo fibrin-Z chamber assay, wound healing and microvessel density; conditions: rat
Description: An in vivo fibrin-Z chamber assay (K. Amin et al., Cancer Biol. Ther. 2:173-178, (2003) was run to analyze wound healing and microvessel density. Plasminogen-free fibrinogen and thrombin were added to a sterile dual porous chamber through a port. To implant the chambers into rats, the animals were anesthetized with 35 mg/kg of sodium pentobarbital. Two incisions approximately 2 cm in length each were made on the dorsum, one over the mid vertebral and the other over the lower vertebral regions. Pockets were made in the subcutaneous fascia lateral to the incisions using blunt end scissors, and the chambers were placed deep into the pockets. The incision wounds were closed with an autoclip stapling device. Triple antibiotic ointment was applied to the incision area to prevent infection. At 24 h after the implantation, rats began to receive a single daily oral dose of (2) at 0, 3, or 30 mg/kg for 12 days. At the end of 12th day, animals were sacrificed. The chambers were harvested, fixed in 10% formalin overnight, and embedded in paraffin for histological analysis. To determine the effect of (2) on wound healing response, granulation tissue (GT) thickness was measured in microns on H&E-stained cross sections of fibrin Z-chambers using the Zeiss Axioskop II equipped with digital camera (Axiocam) and digital imaging software KS 300. To measure the effect of (2) on microvessel density, immunohistochemistry was performed on 4 μm thick paraffin-embedded sections. The sections were deparaffinized in Hemo-D, rehydrated in graded alcohols, subjected to endogenous peroxidase block in 3% H2O2, boiled in 10% citrate buffer for antigen retrieval, blocked with 5% donkey serum, and placed overnight at 4° C. with primary […] monoclonal antibody at 1:20 dilution. […] Images of three hot spots (×200 fields showing maximal vessel density) were captured from each section and the blood vessels counted using the Zeiss interactive digital imaging software KS300. A total of 15 high-power fields (HPFs, 40×) were counted for vessel density for each group.

[2] = test system: A549 human non small cell lung cancer tumors; test: A549 NSCLC nude mouse xenograft model, tumor growth; assay type: in vivo; conditions: 30 days
Description: The xenograft model was conducted using 8 weeks old female athymic nude mice supplied by Charles River Laboratories. After 4 days of quarantine, A549 human non small cell lung cancer cells (3×10^6 cells/mouse) were subcutaneously implanted in the right flanks of mice in a 100 μl of Matrigel/phosphate buffered saline mixture (1:1). Animals were observed daily for tumor growth. When tumors became palpable, we began to measure the tumors using the formula V=W×L×H×π/6, where W and L represent the shorter and longer diameters of the tumor, H the height of the tumor. When tumor volumes reached approximately 50 mm^3, animals were randomized into control and treatment groups of 10 mice each based on tumor volumes. Only the mice with tumor volumes closest to the mean value were used. On the day of randomization, animals began to receive drug treatment. Compound (2) and Tarceva (Erlotinib) were orally dosed via gavage once daily. Cisplatin and Paclitaxel were dosed via intraperitoneal injection once weekly.
After initiation of drug treatment, tumor volumes were measured twice weekly and body weights once weekly. The study was carried out for 30 days and unscheduled sacrifices were performed on animals with tumor volumes greater than 1500 mm^3 or tumors developing ulceration or loss of 20% of their original body weights. […]

[3] = test system: mouse transformed fibroblast cell line (L929); test: Cell growth inhibition, MTT, 7 days, L929; assay type: cell-based; conditions: L929, 7 days, compared with human cancer cell lines
Description: To measure the inhibitory activity of (2) on growth of HDMVEC cells (Clonetics, San Diego, Calif.), 2,000 cells were seeded in each well of a 96-well plate in […] of EGM medium (Clonetics) supplemented with 5% fetal bovine serum (Sigma). The plate was incubated at 37° C. in a tissue culture incubator for 24 h, and then various concentrations of (2) dissolved in EGM were added to each well in 5-10 μl aliquots. Four wells were used for each concentration. Medium in each well was renewed with fresh test solution added every other day. After 7 days of culture, the viable cells were measured using reagents from an MTT kit (Promega Corporation, Madison, Wis.), using instructions provided by the supplier. The number of viable cells in treated wells relative to those in control wells gave the percentage of inhibition.
Compound (2) was evaluated in several different human cancer cell lines for its effects on cell growth. The human cancer cell lines used (ATCC) were A549 lung cancer cells, U-87 brain cancer cells, SKOV-3 ovarian cancer cells, PC-3 non-androgen dependent prostate cancer cells, and MDA MB-231 estrogen-independent breast cancer cells. Human umbilical vein endothelial cells (HUVEC) and a mouse transformed fibroblast cell line (L929) were also included in the assay for comparison. […]

[4] = test system: Stat-3 (pStat-3, Tyr705); test: Stat-3 phosphorylation, Western blot, DU-145 cells; assay type: cell-based, human; conditions: DU-145, 0.5 μM, 48 h
Description: Stat-3 is, therefore, an important molecular target for developing anti-cancer agents. DU-145 cells were treated with 0 (control), 100, or 500 nM of (2) for 48 hours. Western blot analysis was performed using total and phospho-Stat-3 (pStat-3, Tyr705) antibodies from Cell Signal Technology, Inc.

## C[C@@H]1Cc2cc(O)ccc2C2CCC3(C)/C(=C/COCCN(C)C)CCC3C21 (stereo partly drawn) [Compound (2), (E)-3-Hydroxy-7α-methyl-21-[(2-dimethylamino)ethoxy]-19-norpregna-1,3,5(10),17(20)-tetraene]
[1]; 3 mg/kg oral once daily for 12 days
  decrease in granulation tissue thickness: about 20%
[1]; 30 mg/kg oral once daily for 12 days
  decrease in granulation tissue thickness: more than 35%
[1]; oral once daily for 12 days, dose not stated
  decrease in microvessel formation as compared to the control: 30%
[2]; 10 mg/kg oral once daily
  growth rate of A549 tumors: drastically reduced the growth rate
[2]; 20 mg/kg oral once daily
  growth rate of A549 tumors: drastically reduced the growth rate
[3]
  effect on growth of L929 mouse fibroblast cells: much less
[4]
  reduction of tyrosine phosphorylation of Stat-3: 52%
